Reference: US12673120B2, “Fluorescently-traceable amino acid derivative and preparation methods and use thereof” (priority 2020, dated 2026)
Counter-ions that a name gives are not always drawn. Like-named read-outs stand apart in the source and are kept apart here.

What was measured:
[1] = tested on: HCT116 (human colon cancer cells); test: In vitro anti-tumor cell proliferation activity (MTT method), HCT116; type: cell-based; conditions: read-out: IC50 values of in vitro anti-cell proliferation activity
Description: (§2) Tested cell lines S180 (mouse ascites tumor cells), LLC (mouse lung cancer cells), A549 (human non-small cell lung cancer cells), HCT116 (human colon cancer cells), U2Os (human osteosarcoma cells), and MCF-7 (human breast cancer cells) each were purchased from Nanjing KeyGen Biotech.
(§3) When preparing a test sample, the test compound was prepared into a sample solution with a concentration of 500 μM (with a final concentration 100 μM) by a PBS buffer containing 0.5% DMSO, which was used for preliminary screening of an anti-cell proliferation experiment in vitro.
(§4) Positive control group: doxorubicin, prepared to a required concentration with PBS buffer containing 0.5% DMSO; negative control group: a PBS buffer containing 0.5% DMSO; blank group: a PBS buffer containing 0.01% DMSO.

[2] = tested on: S180 (mouse ascites tumor cells); test: In vitro anti-tumor cell proliferation activity (MTT method), S180; type: cell-based; conditions: read-out: IC50 values of in vitro anti-cell proliferation activity
Description: as §2, §3, §4

[3] = tested on: U2Os (human osteosarcoma cells); test: In vitro anti-tumor cell proliferation activity (MTT method), U2Os; type: cell-based; conditions: 48 h, read-out: IC50 values of in vitro anti-cell proliferation activity
Description: as §2, §3, §4

[4] = tested on: A549 (human non-small cell lung cancer cells); test: In vitro anti-tumor cell proliferation activity (MTT method), A549; type: cell-based; conditions: read-out: IC50 values of in vitro anti-cell proliferation activity
Description: as §2, §3, §4

[5] = tested on: MCF-7 (human breast cancer cells); test: In vitro anti-tumor cell proliferation activity (MTT method), MCF-7; type: cell-based; conditions: read-out: IC50 values of in vitro anti-cell proliferation activity
Description: as §2, §3, §4

[6] = tested on: LLC (mouse lung cancer cells); test: In vitro anti-tumor cell proliferation activity (MTT method), LLC; type: cell-based; conditions: 48 h, read-out: IC50 values of in vitro anti-cell proliferation activity
Description: as §2, §3, §4

mouse S180 sarcoma model = test: Inhibition of tumor growth in vivo (mouse S180 sarcoma model); parameters: species or system male ICR mice; conditions: for Average tumor weight: Mean ± SD, n 10
Description: The mice used in the experiment were male ICR mice of SPF grade, weighing 20 g±2 g, purchased from Beijing Vital River Laboratory Animal Technology Co., Ltd., and raised in an animal barrier of the Experimental Animal Department of Capital Medical University.
(§1) The specific method included: drugs were administered to tumor-forming mice by group for 7 consecutive days, a length of the tumor was measured every other day to calculate a tumor volume. 24 h after the last administration, the mice were weighed, anesthetized with diethyl ether, and eyeballs were removed to collect blood; the obtained whole blood was centrifuged at 1,000 rpm for 10 min, and a serum was absorbed for later use. The mice were sacrificed by neck dislocation, and the tumor mass and various organs were stripped and weighed (it was ensured that the operation was done as soon as possible and the stripping was complete and clean). The tumor inhibition rate was calculated by formula b, the results were shown in Table 2 and FIG. 2; and by calculating a viscera-weight ratio of each organ, and it was analyzed whether the test compound had obvious physiological effects on the mouse organs.

Water solubility = type: physicochemical; conditions: decides the injection route
[7] = Viscera-weight ratio / toxicity in tumor-bearing mice; type: in vivo, male ICR mice; conditions: FIG. 5
Description: as §1
After a preliminary study on the in vivo anti-tumor growth activity of different amino acid main compounds, ZD-A, ZD-B, ZD-E-1, and ZD-E-1 with an increased side-chain methylene unit (ZD-F-1) were selected; three dosages of 10 μmol/kg, 5 μmol/kg, and 2 μmol/kg were set to evaluate the inhibitory ability of the four compounds on tumor growth in mice. […] Afterwards, the tumor growth trend and the viscera-weight ratio of the two compounds on mice were analyzed to compare the anti-tumor growth ability and toxicity of the two compounds. The results were shown in FIG. 4 and FIG. 5: after one-way analysis of variance, * meant that compared with the Vehicle group, there was a difference, P<0.05; ** represented a significant difference compared with the Vehicle group, P<0.01.

[8] = Table 2, 10 μmol/kg, ip, 7 consecutive days

Row | Structure (SMILES) | IC50 ([1]; HCT116, 48 h, Mean ± SD) [µM] | IC50 ([2]; S180, 48 h, Mean ± SD) [µM] | IC50 ([3]; U2Os, Mean ± SD) [µM] | IC50 ([4]; A549, 48 h, Mean ± SD) [µM] | IC50 ([5]; MCF-7, 48 h, Mean ± SD) [µM] | IC50 ([6]; LLC, Mean ± SD) [µM] | Tumor Inhibition Rate (mouse S180 sarcoma model; [8]) [%] | Average tumor weight (mouse S180 sarcoma model; [8]) [g] | further results
1 | CS(=O)(=O)NCCNc1ccc([N+](=O)[O-])c2nonc12 [ZD-C, NBD-N-(2-aminoethyl)methanesulfonamide] | > 100 | > 100 | > 100 | > 100 | > 100 | > 100 | 29.46 | 1.260 ± 0.466 | Average tumor weight compared with Vehicle group (one-way analysis of variance) (mouse S180 sarcoma model; 10 μmol/kg, ip): different from that of Vehicle group
2 | O=C1NCCC[C@@H]1Nc1ccc([N+](=O)[O-])c2nonc12 [ZD-D, NBD-Orn(cycto)] | > 100 | > 100 | > 100 | > 100 | > 100 | > 100 | 25.77 | 1.326 ± 0.318 | 
3 | NCCC[C@H](Nc1ccc([N+](=O)[O-])c2nonc12)C(=O)NCc1ccccc1 [ZD-E, (S)-5-amino-N-benzyl-2-((7-nitro-2,1,3-benzoxadiazol-4-yl)amino)pentaneamide] |  |  |  |  |  |  | 25.82 | 1.326 ± 0.685 | IC50 ([1]; Homo sapiens, HCT-116, 48 h): 49.7 ± 4.17 µM; IC50 ([2]; Mus musculus, S-180, 48 h): 66 ± 2.61 µM; IC50 ([3]; Homo sapiens, U2OS): 60.5 ± 0.969 µM; IC50 ([4]; Homo sapiens, A549, 48 h): > 100 µM; IC50 ([5]; Homo sapiens, MCF7, 48 h): 85.2 ± 6.1 µM; IC50 ([6]; Mus musculus): > 100 µM
4 | NCCCC[C@H](Nc1ccc([N+](=O)[O-])c2nonc12)C(=O)NCc1ccccc1 [ZD-F, NBD-Lys(HCl)-NBzl] | > 100 | > 100 | > 100 | > 100 | > 100 | > 100 |  |  | 
5 | N=C(CCl)NCCCC[C@H](Nc1ccc([N+](=O)[O-])c2nonc12)C(=O)NCc1ccccc1 [ZD-F-1, NBD-Lys(C1)-NBzl] | 38.9 ± 2.05 | 23.7 ± 2.29 | 45.7 ± 1.68 | > 100 | 68.7 ± 1.5 | > 100 |  |  | Water solubility (Water solubility): had no such concerns; Tumor growth trend in mice (mouse S180 sarcoma model; FIG. 4, ZD-E-1 versus ZD-F-1): roughly the same; Tumor Inhibition Rate (mouse S180 sarcoma model; Table 3, 2 μmol/kg, iv): 13.32%; Average tumor weight (mouse S180 sarcoma model; Table 3, 2 μmol/kg, iv): 1.487 ± 0.660 g; Tumor Inhibition Rate (mouse S180 sarcoma model; Table 3, 5 μmol/kg, iv): 30.54%; Average tumor weight (mouse S180 sarcoma model; Table 3, 5 μmol/kg, iv): 1.191 ± 0.407 g; Tumor Inhibition Rate (mouse S180 sarcoma model; Table 3, 10 μmol/kg, iv): 39.99%; Average tumor weight (mouse S180 sarcoma model; Table 3, 10 μmol/kg, iv): 1.029 ± 0.423 g; Effect on liver weight (viscera-weight ratio) compared with Vehicle group ([7]; ZD-E-1 at high dosages (10 μmol/kg and 5 μmol/kg)): no difference; Effect on brain weight (viscera-weight ratio) compared with Vehicle group ([7]; ZD-E-1 at three dosages): no difference
